Measurements taken from patent publication US8618289B2 (Ambit Biosciences Corporation, priority 2008, dated 2013).
Structures can show the parent of a compound that is named as a salt.

How the values were obtained:
[1] = tested on: MEK1 phosphorylation in the A375 human melanoma cell line; test: cells; settings: A-375, read-out: pMEK IC50
[2] = tested on: A375 cells; test: cells; settings: Homo sapiens, A-375, read-out: A375 Viability EC50
[3] = biological target: RAF kinases (Homo sapiens, UniProt P15056); test: biochemical
Sequence of RAF kinases (Homo sapiens, UniProt P15056) (P15056 whole entry): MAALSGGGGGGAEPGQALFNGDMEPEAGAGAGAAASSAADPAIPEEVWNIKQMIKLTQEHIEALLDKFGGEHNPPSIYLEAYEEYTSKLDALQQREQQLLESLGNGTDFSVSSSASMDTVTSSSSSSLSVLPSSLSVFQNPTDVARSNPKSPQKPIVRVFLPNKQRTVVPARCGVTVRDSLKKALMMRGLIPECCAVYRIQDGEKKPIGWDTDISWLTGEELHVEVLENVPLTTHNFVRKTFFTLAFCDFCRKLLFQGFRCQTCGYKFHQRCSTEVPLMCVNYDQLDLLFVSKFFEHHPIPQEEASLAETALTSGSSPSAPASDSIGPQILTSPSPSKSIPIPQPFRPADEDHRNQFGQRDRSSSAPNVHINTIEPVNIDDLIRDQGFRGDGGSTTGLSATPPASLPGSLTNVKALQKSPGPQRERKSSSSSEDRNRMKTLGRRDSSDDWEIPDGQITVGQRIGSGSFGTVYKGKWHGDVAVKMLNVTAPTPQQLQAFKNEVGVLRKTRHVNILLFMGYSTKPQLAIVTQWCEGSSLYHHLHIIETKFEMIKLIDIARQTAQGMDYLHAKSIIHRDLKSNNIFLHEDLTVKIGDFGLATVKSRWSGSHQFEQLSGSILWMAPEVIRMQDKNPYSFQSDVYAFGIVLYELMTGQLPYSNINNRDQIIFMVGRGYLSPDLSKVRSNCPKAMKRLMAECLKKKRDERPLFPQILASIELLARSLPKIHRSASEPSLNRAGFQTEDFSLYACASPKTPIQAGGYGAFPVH

[4] = biological target: RAF kinases (Homo sapiens, UniProt P04049); test: biochemical
Sequence of RAF kinases (Homo sapiens, UniProt P04049) (P04049 whole entry): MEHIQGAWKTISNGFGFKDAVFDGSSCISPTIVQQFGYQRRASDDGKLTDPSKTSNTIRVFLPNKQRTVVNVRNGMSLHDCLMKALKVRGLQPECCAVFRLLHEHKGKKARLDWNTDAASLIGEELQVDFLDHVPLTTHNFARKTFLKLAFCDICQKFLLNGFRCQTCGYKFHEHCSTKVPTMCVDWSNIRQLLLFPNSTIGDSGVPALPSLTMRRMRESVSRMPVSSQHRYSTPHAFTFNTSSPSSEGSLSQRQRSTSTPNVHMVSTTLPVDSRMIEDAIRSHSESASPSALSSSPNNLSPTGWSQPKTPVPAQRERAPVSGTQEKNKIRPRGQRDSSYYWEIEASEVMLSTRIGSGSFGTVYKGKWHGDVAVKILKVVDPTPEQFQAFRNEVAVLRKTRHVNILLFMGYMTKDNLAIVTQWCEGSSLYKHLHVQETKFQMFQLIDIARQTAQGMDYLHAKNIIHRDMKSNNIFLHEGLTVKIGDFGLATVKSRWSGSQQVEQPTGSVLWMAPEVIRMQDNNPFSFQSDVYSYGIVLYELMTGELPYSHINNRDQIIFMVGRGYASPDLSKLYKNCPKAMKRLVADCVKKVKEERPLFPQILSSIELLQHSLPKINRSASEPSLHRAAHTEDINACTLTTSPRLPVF

SMILES | IC50 [1] | EC50 [2] | Kd [3] | Kd [4]
COCCOc1ccc2c(Oc3cccc(NC(=O)Nc4cc(C(C)(C)C)on4)c3)ncnc2c1 [Ex 43, 1-(5-tert-butylisoxazol-3-yl)-3-(3-(7-(2-methoxyethoxy)quinazolin-4-yloxy)phenyl)urea] | 250 to 500 nM | > 1000 nM | 500 to 1000 nM | 250 to 500 nM
COCCOc1cc2c(Sc3cccc(NC(=O)Nc4cc(C(C)(C)C)on4)c3)ncnc2cc1OC [Ex 45, 1-(5-tert-butylisoxazol-3-yl)-3-(3-(7-methoxy-6-(2-methoxyethoxy)quinazolin-4-ylthio)phenyl)urea] | < 250 nM | 250 to 500 nM | 500 to 1000 nM | 250 to 500 nM
COc1cc2ncnc(Sc3cccc(NC(=O)Nc4cc(C(C)(C)C)on4)c3)c2cc1OC [Ex 46, 1-(5-tert-butylisoxazol-3-yl)-3-(3-(6,7-dimethoxyquinazolin-4-ylthio)phenyl)urea] | < 250 nM | 250 to 500 nM | 500 to 1000 nM | 250 to 500 nM
COCCOc1cc2ncnc(Sc3cccc(NC(=O)Nc4cc(C(C)(C)C)on4)c3)c2cc1OC [Ex 52, 1-(5-tert-butylisoxazol-3-yl)-3-{3-[6-methoxy-7-(2-methoxyethoxy)quinazolin-4-ylthio]phenyl}urea hydrochloride] | < 250 nM | 500 to 1000 nM | 250 to 500 nM | 250 to 500 nM
COCCOc1cc2ncnc(Sc3cccc(NC(=O)Nc4cc(C(C)(C)C)on4)c3)c2cc1OCCOC [Ex 53, 1-{3-[6,7-bis(2-methoxyethoxy)quinazolin-4-ylthio]phenyl}-3-(5-tert-butylisoxazol-3-yl)urea hydrochloride] | < 250 nM | 500 to 1000 nM | 500 to 1000 nM | 250 to 500 nM
CCOc1cc2c(Sc3cccc(NC(=O)Nc4cc(C(C)(C)C)on4)c3)ncnc2cc1OC [Ex 56, 1-(5-tert-butylisoxazol-3-yl)-3-(3-(6-ethoxy-7-methoxyquinazolin-4-ylthio)phenyl)urea] | < 250 nM | < 250 nM | 500 to 1000 nM | 250 to 500 nM
COc1cc2ncnc(Sc3cccc(NC(=O)Nc4cc(C(C)(C)C)on4)c3)c2cc1OCCCN1CCCCC1 [Ex 57, 1-(5-tert-butylisoxazol-3-yl)-3-(3-(7-methoxy-6-(3-(piperidin-1-yl)propoxy)quinazolin-4-ylthio)phenyl) urea] | < 250 nM | > 1000 nM | 500 to 1000 nM | 500 to 1000 nM
COc1cc2ncnc(Sc3cccc(NC(=O)Nc4cc(C(C)(C)C)on4)c3)c2cc1OCCCN1CCC(CO)CC1 [Ex 58, 1-(5-tert-butylisoxazol-3-yl)-3-(3-(6-(3-(4-(hydroxymethyl)piperidin-1-yl)propoxy)-7-methoxyquinazolin-4-ylthio)phenyl)urea] | < 250 nM | > 1000 nM | 250 to 500 nM | 500 to 1000 nM
COc1cc2ncnc(Sc3cccc(NC(=O)Nc4cc(C(C)(C)C)on4)c3)c2cc1OCCCN1CCN(C)CC1 [Ex 59, 1-(5-tert-butylisoxazol-3-yl)-3-(3-(7-methoxy-6-(3-(4-methylpiperazin-1-yl)propoxy)quinazolin-4-ylthio)phenyl)urea] | < 250 nM | > 1000 nM | 250 to 500 nM | 250 to 500 nM
COc1cc2ncnc(Sc3cccc(NC(=O)Nc4cc(C(C)(C)C)on4)c3)c2cc1OCCCN1CCN(S(C)(=O)=O)CC1 [Ex 60, 1-(5-tert-butylisoxazol-3-yl)-3-(3-(7-methoxy-6-(3-(4-(methylsulfonyl)piperazin-1-yl)propoxy)quinazolin-4-ylthio)phenyl) urea] | < 250 nM | 250 to 500 nM | 500 to 1000 nM | 250 to 500 nM
COc1cc2ncnc(Sc3cccc(NC(=O)Nc4cc(C(C)(C)C)on4)c3)c2cc1OCCN1CCC(CO)CC1 [Ex 66, 1-(5-tert-butylisoxazol-3-yl)-3-(3-(6-(2-(4-(hydroxymethyl)piperidin-1-yl)ethoxy)-7-methoxyquinazolin-4-ylthio)phenyl)urea] | < 250 nM | > 1000 nM | 500 to 1000 nM | 500 to 1000 nM
COc1cc2ncnc(Sc3cccc(NC(=O)Nc4cc(C(C)(C)C)on4)c3)c2cc1OCCN1CCN(C)CC1 [Ex 67, 1-(5-tert-butylisoxazol-3-yl)-3-(3-(7-methoxy-6-(2-(4-methylpiperazin-1-yl)ethoxy)quinazolin-4-ylthio)phenyl)urea] | < 250 nM | > 1000 nM | 250 to 500 nM | 250 to 500 nM
COc1cc2ncnc(Sc3cccc(NC(=O)Nc4cc(C(C)(C)C)on4)c3)c2cc1OCCN1CCN(CCO)CC1 [Ex 68, 1-(5-tert-butylisoxazol-3-yl)-3-(3-(6-(2-(4-(2-hydroxyethyl)piperazin-1-yl)ethoxy)-7-methoxyquinazolin-4-ylthio)phenyl)urea] | < 250 nM | 500 to 1000 nM | 250 to 500 nM | 250 to 500 nM
COc1cc2ncnc(Sc3cccc(NC(=O)Nc4cc(C(C)(C)C)on4)c3)c2cc1OCCN1CCN(S(C)(=O)=O)CC1 [Ex 69, 1-(5-tert-butylisoxazol-3-yl)-3-(3-(7-methoxy-6-(2-(4-(methylsulfonyl)piperazin-1-yl)ethoxy)quinazolin-4-ylthio)phenyl)urea] | < 250 nM | 250 to 500 nM | 250 to 500 nM | 250 to 500 nM
COc1cc2c(Sc3cccc(NC(=O)Nc4cc(C(C)(C)C)on4)c3)ncnc2cc1OCCCN1CCN(C)CC1 [Ex 73, 1-(5-tert-butylisoxazol-3-yl)-3-(3-(6-methoxy-7-(3-(4-methylpiperazin-1-yl)propoxy)quinazolin-4-ylthio)phenyl)urea] | < 250 nM | 500 to 1000 nM | 250 to 500 nM | 250 to 500 nM
COc1cc2c(Sc3cccc(NC(=O)Nc4cc(C(C)(C)C)on4)c3)ncnc2cc1OCCCN1CCN(CCO)CC1 [Ex 75, 1-(5-tert-butylisoxazol-3-yl)-3-(3-(7-(3-(4-(2-hydroxyethyl)piperazin-1-yl)propoxy)-6-methoxyquinazolin-4-ylthio)phenyl)urea] | < 250 nM | > 1000 nM | 250 to 500 nM | 250 to 500 nM
COc1cc2c(Sc3cccc(NC(=O)Nc4cc(C(C)(C)C)on4)c3)ncnc2cc1OCCCN1CCCCC1 [Ex 76, 1-(5-tert-butylisoxazol-3-yl)-3-(3-(6-methoxy-7-(3-(piperidin-1-yl)propoxy)quinazolin-4-ylthio)phenyl)urea] | < 250 nM | > 1000 nM | 250 to 500 nM | 500 to 1000 nM
COc1cc2c(Sc3cccc(NC(=O)Nc4cc(C(C)(C)C)on4)c3)ncnc2cc1OCCCN1CCN(S(C)(=O)=O)CC1 [Ex 77, 1-(5-tert-butylisoxazol-3-yl)-3-(3-(6-methoxy-7-(3-(4-(methylsulfonyl)piperazin-1-yl)propoxy)quinazolin-4-ylthio)phenyl)urea] | < 250 nM | 250 to 500 nM | 500 to 1000 nM | 500 to 1000 nM
COc1cc2c(Sc3cccc(NC(=O)Nc4cc(C(C)(C)C)on4)c3)ncnc2cc1OCCN1CCOCC1 [Ex 79, 1-(5-tert-butylisoxazol-3-yl)-3-(3-(6-methoxy-7-(2-morpholinoethoxy)quinazolin-4-ylthio)phenyl)urea] | < 250 nM | > 1000 nM | 500 to 1000 nM | 500 to 1000 nM
COc1cc2c(Sc3cccc(NC(=O)Nc4cc(C(C)(C)C)on4)c3)ncnc2cc1OCCN1CCCCC1 [Ex 80, 1-(5-tert-butylisoxazol-3-yl)-3-(3-(6-methoxy-7-(2-(piperidin-1-yl)ethoxy)quinazolin-4-ylthio)phenyl)urea] | 250 to 500 nM | > 1000 nM | 250 to 500 nM | 250 to 500 nM
COc1cc2c(Sc3cccc(NC(=O)Nc4cc(C(C)(C)C)on4)c3)ncnc2cc1OCCN1CCN(S(C)(=O)=O)CC1 [Ex 81, 1-(5-tert-butylisoxazol-3-yl)-3-(3-(6-methoxy-7-(2-(4-(methylsulfonyl)piperazin-1-yl)ethoxy)quinazolin-4-ylthio)phenyl)urea] | < 250 nM | 250 to 500 nM | 500 to 1000 nM | 500 to 1000 nM
COc1cc2c(Sc3cccc(NC(=O)Nc4cc(C(C)(C)C)on4)c3)ncnc2cc1OCCN1CCN(C)CC1 [Ex 83, 1-(5-tert-butylisoxazol-3-yl)-3-(3-(6-methoxy-7-(2-(4-methylpiperazin-1-yl)ethoxy)quinazolin-4-ylthio)phenyl)urea] | < 250 nM | > 1000 nM | 250 to 500 nM | 250 to 500 nM
CC(C)(C)c1cc(NC(=O)Nc2cccc(Sc3ncnc4ccc(OCCCN5CCS(=O)(=O)CC5)cc34)c2)no1 [Ex 90, 1-(5-tert-butyl-isoxazol-3-yl)-3-(3-{6-[3-(1,1-dioxo-thiomorpholin-4-yl)-propoxy]-quinazolin-4-ylsulfanyl}-phenyl)-urea] | < 250 nM | > 1000 nM | 500 to 1000 nM | 250 to 500 nM
COc1cc2ncnc(Oc3cccc(NC(=O)Nc4cc(C(C)(C)C)on4)c3)c2cc1OCCN1CCS(=O)(=O)CC1 [Ex 91, 1-(5-tert-butyl-isoxazol-3-yl)-3-(3-{6-[2-(1,1-dioxo-thiomorpholin-4-yl)-ethoxy]-7-methoxy-quinazolin-4-yloxy}-phenyl)-urea] | < 250 nM | < 250 nM | 250 to 500 nM | 250 to 500 nM
CC(C)(C)c1cc(NC(=O)Nc2cccc(Oc3ncnc4ccc(-c5ccc(CNCCS(C)(=O)=O)o5)cc34)c2)no1 [Ex 92, 1-(5-tert-butylisoxazol-3-yl)-3-{3-[6-(5-{[2-(methylsulfonyl)ethylamino]methyl}furan-2-yl)quinazolin-4-yloxy]phenyl}urea] | < 250 nM | < 250 nM | 500 to 1000 nM | 250 to 500 nM
COc1cc2c(Oc3cccc(NC(=O)Nc4cc(C(C)(C)C)on4)c3)ncnc2cc1O [Ex 95, 1-(5-tert-butylisoxazol-3-yl)-3-(3-(7-hydroxy-6-methoxyquinazolin-4-yloxy)phenyl)urea] | < 250 nM | < 250 nM | 500 to 1000 nM | 250 to 500 nM
